This is an account of results in US20180037871A1, “CANCER INITIATING CELL AND USE THEREOF” (priority 2016, published 2018).

“Also recorded” adds a separate entry of the source. Where two headings read alike, the source gives them in different places.

Assay [1] has as its system CAR+/mPSCs^Oct-4_hi C1 clone. Nature of the assay: Cell viability assay (WST-1), C1 clone. The assay is classed as cell-based, mouse. The note with it: 48 h, mean ± SD. The protocol:
(§1) Cells were seeded at 3×10^3 cells per well in 96-well plates and incubated for 18 h. Cells were treated with cisplatin (Sigma-Aldrich) or paclitaxel (Sigma-Aldrich) at various concentrations. After 48 h, WST-1 assay (Roche) was performed to determine cell viability according to the manufacturer's instructions. Cell viability was expressed as a percentage of the non-treated group, and the IC50 values were determined.

Assay [2] deals with CAR+/mPSCs^Oct-4_hi E9 clone. Nature of the assay: Cell viability assay (WST-1), E9 clone. The assay is classed as cell-based, mouse. Conditions: 48 h, mean ± SD. The protocol:
as §1

In the next assay the test system is A549 cells. Nature of the assay: Cell viability assay (WST-1), A549 cells. It is filed as cell-based, human. Conditions: 48 h, mean ± SD. The protocol:
as §1

In assay [3] the test system is CAR+/mPSCs^Oct-4_hi C1, E9, and C7 clones. Nature of the assay: Cell viability assay (WST-1), C1, E9 and C7 clones together. It is filed as cell-based, mouse. Conditions: for IC50: range over C1, E9, and C7 clones, 48 h. The protocol: as §1
The subject of assay [4] is CAR+/mPSCs^Oct-4_hi C7 clone. Nature of the assay: Cell viability assay (WST-1), C7 clone. Conditions: 48 h, mean ± SD. It is filed as cell-based, mouse. The procedure:
as §1

In assay [5] the test system is blood vessel formation induced by C1 clone. Nature of the assay: Chick chorioallantoic membrane (CAM) assay of C1 clone. The assay is classed as in vivo, chicken. Conditions: 2 μM Tie2 kinase inhibitor, C1 clone 1×10^6 cells on CAM. The protocol:
Fertilized chicken eggs were incubated at 37° C. in an atmosphere of 80% humidity. At day 8 of the development, 1×10^6 cells were loaded onto a membrane and implanted on the top of the growing CAM. At day 11, CAM was fixed with 4% paraformaldehyde, and photographed using a stereomicroscope and digital camera. Branching points were quantified using NIH Image J software with the angiogenesis plugin.
At day 11, CAM was fixed with 4% paraformaldehyde, and photographed using a stereomicroscope and a digital camera. Branching points were quantified using NIH Image J software with the angiogenesis plugin.

A further assay has as its system C1 clone tumor. Nature of the assay: Xenograft tumor assay of C1 clone. The assay is classed as in vivo. The note with it: 50 mg/kg BW ip once every two days, 1×10^5 C1 cells sc, SCID mice, volume recorded day 10 to 25. From the text: All animal experiments were reviewed and approved by the Institutional Animal Care and Use Committee of National Taiwan University College of Medicine. For teratoma formation assay, 1×10^6 cells of CAR^+/mPSCs^Oct-4^_^hi C1, E9, and C7 clones were subcutaneously injected into 8-week-old male severe combined immunodeficiency (SCID) mice. For limiting dilution transplantation experiment, the C1 clone (10^5, 10^4, 10^3 and 10^2 cells) or CAR^+/mPSCs (10^6 cells) were subcutaneously injected into SCID mice. For C1-GFP clone and A549 cells derived tumor experiments. C1-GFP clone (1×10^5 cells) or A549 (1×10^6 cells) were subcutaneously injected into SCID mice. Tumor dimensions were measured using calipers once every 3 d, and volumes (cm^3) were calculated according to the standard formula: length×width^2/2. At the end of the experiment, the tumors were surgically excised and photographed. In metastasis assay, 3×10^5 cells of C1 clone, and CAR^+/mPSCs were injected into the lateral tail vein of SCID mice. Lung metastatic nodules were evaluated at week 5 by necropsy and histological examination. […]
1×10^5 cells of CAR^+/mPSCs^Oct-4^_^hi C1 clone were subcutaneously injected into 8-week-old male severe combined immunodeficiency (SCID) mice. […] Tumor dimensions were measured using calipers once every 2 or 3 d, and volumes (cm^3) were calculated according to the standard formula: length×width^2/2. […]

Setting [6] is: IC50 in C1, E9, C7 clones versus A549 cells.
The mark [7] stands for this setting: Mus musculus, read-out: IC50 of paclitaxel.

Regarding `N.N.[Cl][Pt][Cl]` [Cisplatin, cisplatin], the IC50 in assay [1] (read-out: IC50 of cisplatin) is 34.7 ± 1.4 µM; in assay [2] (read-out: IC50 of cisplatin) it was 26.4 ± 2.3 µM; in the assay with A549 cells (read-out: IC50 of cisplatin), 13.5 ± 2.2 µM; in assay [3] (read-out: IC50 of cisplatin), 26.4 to 34.7 µM; in assay [4] (read-out: IC50 of cisplatin) it was 32.7 ± 1.6 µM. For the same molecule, in assay [3] (setting [6]), the “resistance to cisplatin compared to the A549 cells” value is listed as 2-3 fold.

With `COc1ccc2cc(-c3nc(-c4ccc([S+](C)[O-])cc4)[nH]c3-c3ccncc3)ccc2c1` (stereo not drawn) [Tie2 kinase inhibitor], the “blood vessel formation (branch point number)” value in assay [5] is listed as “inhibited the blood vessel formation; also recorded: decreases the blood vessel formation induced by C1 clone”. For the same molecule, the “tumor volume / tumor growth” value in the assay with C1 clone tumor is listed as “the tumor growth of C1 clone is inhibited”; in the assay with C1 clone tumor (listed as Tie2 inhibitor), “significantly reduced the tumor volume”.

As to `CC(=O)O[C@H]1C(=O)[C@@]2(C)[C@H]([C@H](OC(=O)c3ccccc3)[C@]3(O)C[C@H](OC(=O)[C@H](O)[C@@H](NC(=O)c4ccccc4)c4ccccc4)C(C)=C1C3(C)C)[C@]1(OC(C)=O)CO[C@@H]1C[C@@H]2O` [Paclitaxel, paclitaxel], the IC50 in assay [1] (setting [7]) is 0.0472 ± 0.002 µM; in assay [2] (setting [7]), 0.0432 ± 0.0036 µM; with A549 cells (Homo sapiens, read-out: IC50 of paclitaxel), 0.0082 ± 0.0035 µM; in assay [3] (setting [7]) it was 0.0432 to 0.0472 µM; in assay [4] (setting [7]), 0.045 ± 0.0025 µM. Moreover, the “IC50 of paclitaxel higher than that of the A549 cells” value in assay [3] (setting [6]) was “approximately 6 fold”.
